Here are results for 20 molecules from PubChem BioAssay AID192 (DTP/NCI, 2004).

The structures appear in SMILES notation. Values joined by “and” are separate entries in the source; they are usually repeats but may differ in a detail not shown here. Identical values can stand only once. Inconclusive results and toxic doses are left out.

The subject of the assay is BDF1 mice, B16 melanoma ip, median survival T/C. The experiment in a line: NCI In Vivo Anticancer Drug Screen. Data for tumor model B16 Melanoma (intraperitoneal) in B6D2F1 (BDF1) mice. To be noted: endpoint: median survival time, higher = longer survival. An outline of the steps:
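Compounds were tested in mice carrying transplantable tumors. Survival or tumor size was recorded, and each value is the treated-group measurement (T) divided by that of the vehicle-treated control group (C).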

The mark [1] stands for this setting: dose: 6.25 mg/kg/injection, schedule: Q01DX009 (ip), vehicle: saline with Tween-80.
Where [2] appears, read: dose: 25.0 mg/kg/injection, schedule: Q01DX009 (ip), vehicle: Klucel (hydroxypropylcellulose) (HPC).
Where [3] appears, read: dose: 25.0 mg/kg/injection, schedule: Q01DX009 (ip), vehicle: saline with Tween-80.
Setting [4] is: dose: 50.0 mg/kg/injection, schedule: Q01DX009 (ip), vehicle: Klucel (hydroxypropylcellulose) (HPC).
[5] abbreviates: dose: 100.0 mg/kg/injection, schedule: Q01DX009 (ip), vehicle: Klucel (hydroxypropylcellulose) (HPC).
The mark [6] stands for this setting: dose: 25.0 mg/kg/injection, schedule: Q01DX009 (ip), vehicle: saline.
The mark [7] stands for this setting: dose: 50.0 mg/kg/injection, schedule: Q01DX009 (ip), vehicle: saline.
[8] abbreviates: dose: 100.0 mg/kg/injection, schedule: Q01DX009 (ip), vehicle: saline.
Where [9] appears, read: dose: 12.5 mg/kg/injection, schedule: Q01DX009 (ip), vehicle: saline with Tween-80.
[10] abbreviates: dose: 0.25 mg/kg/injection, schedule: Q01DX009 (ip), vehicle: saline.
[11] abbreviates: dose: 0.5 mg/kg/injection, schedule: Q01DX009 (ip), vehicle: saline.
[12] abbreviates: dose: 200.0 mg/kg/injection, schedule: Q01DX009 (ip), vehicle: Klucel (hydroxypropylcellulose) (HPC).
[13] abbreviates: dose: 400.0 mg/kg/injection, schedule: Q01DX009 (ip), vehicle: Klucel (hydroxypropylcellulose) (HPC).
The mark [14] stands for this setting: dose: 100.0 mg/kg/injection, schedule: Q01DX009 (ip), vehicle: saline with Tween-80.
Setting [15] is: dose: 50.0 mg/kg/injection, schedule: Q01DX009 (ip), vehicle: saline with Tween-80.

Turning to `CC(C)CCCCCCCCCCCCC(=O)NCC(=O)NC1C(O)C(O)C(Nc2ncnc3nc[nH]c23)OC1C(O)CO` (stereo unspecified), the T/C was 114 % of control (dose: 0.25 mg/kg/injection, schedule: Q01DX009 (ip), vehicle: Klucel (hydroxypropylcellulose) (HPC)); 151 % of control (dose: 1.0 mg/kg/injection, schedule: Q01DX009 (ip), vehicle: saline); 98 % of control (dose: 62.5 micrograms/kg/injection, schedule: Q01DX009 (ip), vehicle: saline); 98 % of control (dose: 125.0 micrograms/kg/injection, schedule: Q01DX009 (ip), vehicle: saline); 98 % of control (dose: 250.0 micrograms/kg/injection, schedule: Q01DX009 (ip), vehicle: saline); 107 % of control (dose: 500.0 micrograms/kg/injection, schedule: Q01DX009 (ip), vehicle: saline).
`O=C(Nc1ccc(Cl)c(Cl)c1)Nc1c(Oc2ccc(Cl)c(Cl)c2)ccc(Cl)c1S(=O)(=O)O`: the T/C is, setting by setting: (dose: 3.12 mg/kg/injection, schedule: Q01DX009 (ip), vehicle: Klucel (hydroxypropylcellulose) (HPC)) 119 % of control; (dose: 6.25 mg/kg/injection, schedule: Q01DX009 (ip), vehicle: Klucel (hydroxypropylcellulose) (HPC)) 105 % of control; under setting [1], 122 % of control; (dose: 12.5 mg/kg/injection, schedule: Q01DX009 (ip), vehicle: Klucel (hydroxypropylcellulose) (HPC)) 105 % of control; under setting [2], 116 % of control; under setting [3], 122 % of control. The T/C is, setting by setting: under setting [4], 112 % of control; under setting [5], 123 % of control.
For the molecule `O=C1NC2(CCCCC2)NC12CCCCC2`, the T/C reads like this: under setting [6], 102 % of control; under setting [7], 97 % of control; under setting [8], 97 % of control; (dose: 150.0 mg/kg/injection, schedule: Q01DX009 (ip), vehicle: saline) 94 % of control; (dose: 225.0 mg/kg/injection, schedule: Q01DX009 (ip), vehicle: saline) 86 % of control.
In the case of `NC1=NC(=O)N2CC12` (stereo unspecified), the T/C by setting is: (dose: 12.5 mg/kg/injection, schedule: Q01DX009 (ip), vehicle: saline) 100 % of control; under setting [6], 103 % of control; under setting [7], 105 % of control; under setting [8], 103 % of control.
Take `N#C[CH2][Sn]([I])([c]1ccccc1)[c]1ccccc1`: the T/C (dose: 3.12 mg/kg/injection, schedule: Q01DX009 (ip), vehicle: saline with Tween-80) is 93 % of control; the T/C under setting [1] was 87 % of control; the T/C under setting [9] was 86 % of control.
For the molecule `CC(=O)Oc1ccc(Nc2c3ccccc3nc3ccccc23)cc1`, the T/C by setting is: (dose: 1.87 mg/kg/injection, schedule: Q01DX009 (ip), vehicle: saline with Tween-80) 110 % of control; (dose: 3.75 mg/kg/injection, schedule: Q01DX009 (ip), vehicle: saline with Tween-80) 114 % of control; (dose: 7.5 mg/kg/injection, schedule: Q01DX009 (ip), vehicle: saline with Tween-80) 121 % of control; (dose: 29.3 mg/kg/injection, schedule: Q01DX009 (ip), vehicle: saline with Tween-80) 197 % of control; (dose: 30.0 mg/kg/injection, schedule: Q01DX009 (ip), vehicle: saline with Tween-80) 156 % of control and 158 % of control; (dose: 40.0 mg/kg/injection, schedule: Q01DX009 (ip), vehicle: saline with Tween-80) 150 % of control.
With `COc1ccc2c(c1)N(CCCN(C)C)c1ccccc1S2`, the T/C reads like this: (dose: 2.34 mg/kg/injection, schedule: Q01DX009 (ip), vehicle: saline) 102 % of control; (dose: 4.68 mg/kg/injection, schedule: Q01DX009 (ip), vehicle: saline) 110 % of control; (dose: 18.75 mg/kg/injection, schedule: Q01DX009 (ip), vehicle: saline) 102 % of control; (dose: 37.5 mg/kg/injection, schedule: Q01DX009 (ip), vehicle: saline) 110 % of control.
Regarding `CCOC(=O)NC1=C(N2CC2)C(=O)C(NC(=O)OCC)=C(N2CC2)C1=O`, the T/C reads like this: (dose: 0.13 mg/kg/injection, schedule: Q03HX016 (ip), vehicle: water) 96 % of control; under setting [10], 100 % of control; (dose: 0.25 mg/kg/injection, schedule: Q03HX016 (ip), vehicle: water) 93 % of control; under setting [11], 110 % of control; (dose: 0.75 mg/kg/injection, schedule: Q01DX009 (ip), vehicle: saline) 120 % of control; (dose: 1.0 mg/kg/injection, schedule: Q01DX001 (oral), vehicle: water) 96 % of control. The T/C reads like this: (dose: 1.0 mg/kg/injection, schedule: Q03HX024 (ip), vehicle: water) 91 % of control; (dose: 3.0 mg/kg/injection, schedule: Q01DX009 (ip), vehicle: saline with Tween-80) 162 % of control; (dose: 3.0 mg/kg/injection, schedule: Q01DX009 (ip), vehicle: saline) 160 % of control; (dose: 5.0 mg/kg/injection, schedule: Q01DX005 (ip), vehicle: saline with Tween-80) 194 % of control; (dose: 16.0 mg/kg/injection, schedule: Q01DX009 (oral), vehicle: water) 86 % of control.
`Nc1ccccc1S(=O)(=O)Nc1ccccc1`: the T/C was 96 % of control under setting [5], 107 % of control under setting [12] and 110 % of control under setting [13].
Turning to `C(=N\OCc1ccccc1)/c1ccccn1`, the T/C was 101 % of control under setting [5], 101 % of control under setting [12] and 97 % of control under setting [13].
`Nc1nc(Cl)nc2c1ncn2C1OC(CO)C(O)C1O` (stereo unspecified): the T/C is 95 % of control under setting [6], 93 % of control under setting [7] and 95 % of control under setting [8].
With `CC(=O)N(C)C(C(=O)N1CC(C)CC1C(=O)N(C)C1C(=O)NC(CC(C)C)C(=O)N2CC(C)CC2C(=O)NC(CC(C)C)C(=O)N(C)C(C(C)C)C(=O)N2CCCC2C(=O)N(C)C(CC(C)C)C(=O)NCC(=O)OC1C)C(C)C` (stereo unspecified), the T/C reads like this: (dose: 18.75 mg/kg/injection, schedule: Q01DX009 (ip), vehicle: Klucel (hydroxypropylcellulose) (HPC)) 94 % of control; (dose: 37.5 mg/kg/injection, schedule: Q01DX009 (ip), vehicle: Klucel (hydroxypropylcellulose) (HPC)) 97 % of control; (dose: 75.0 mg/kg/injection, schedule: Q01DX009 (ip), vehicle: Klucel (hydroxypropylcellulose) (HPC)) 94 % of control.
Take `Cc1cc2nc(-c3ccccc3)c(-c3ccccc3)nc2cc1C`: the T/C reads like this: under setting [14], 102 % of control; (dose: 200.0 mg/kg/injection, schedule: Q01DX009 (ip), vehicle: saline with Tween-80) 100 % of control; (dose: 400.0 mg/kg/injection, schedule: Q01DX009 (ip), vehicle: saline with Tween-80) 91 % of control.
`O=C(NC(CSCc1ccccc1)C(=O)O)OCc1ccccc1` (stereo unspecified): the T/C was 107 % of control under setting [9]; 107 % of control under setting [3]; 98 % of control and 103 % of control under setting [15]; 87 % of control under setting [14].
Turning to `C[C@@H]1C[C@@]2(O[C@@H]2C)C(=O)O[C@@H]2CCN3CC=C(COC(=O)[C@]1(C)O)[C@H]23`, the T/C is 102 % of control (dose: 10.0 mg/kg/injection, schedule: Q01DX009 (ip), vehicle: saline); 102 % of control (dose: 20.0 mg/kg/injection, schedule: Q01DX009 (ip), vehicle: saline); 104 % of control (dose: 40.0 mg/kg/injection, schedule: Q01DX009 (ip), vehicle: saline).
Turning to `O=C1N[C@H]2[C@H](CS[C@H]2CCCCC(=O)N(CCP(c2ccccc2)c2ccccc2)CCP(c2ccccc2)c2ccccc2)N1`, the T/C is 112 % of control under setting [2], 120 % of control under setting [4], 123 % of control under setting [12] and 108 % of control under setting [13].
As to `CC1CCCN(c2ccc([N+](=O)[O-])cc2[N+](=O)[O-])C1` (stereo unspecified), the T/C is 93 % of control under setting [5] and 100 % of control under setting [13].
Regarding `O=C1C(N2CC2)=C(N2CCCC(O)C2)C(=O)C(N2CC2)=C1N1CCCC(O)C1` (stereo unspecified), the T/C under setting [10] is 113 % of control and the T/C under setting [11] is 120 % of control.
For `c1ccc(Cc2ccccc2)cc1`, the T/C under setting [14] was 89 % of control.
For `CCc1ccccc1NC(=O)C(c1ccccc1)c1ccccc1`, the T/C is 99 % of control under setting [3], 97 % of control under setting [15] and 92 % of control under setting [14].
